According to US20100239556A1, “PROMOTING ECM PRODUCTION BY FIBROBLAST CELLS AND/OR PROMOTING MIGRATION OF FIBROBLAST CELLS IN A BIOLOGICAL SYSTEM” (TGR BioScience Pty Ltd., priority 2006, published 2010):

B1: horse radish peroxidase (protein, UniProt P00433 31-338, looked up)
Peroxidase C1A: QLTPTFYDNSCPNVSNIVRDTIVNELRSDPRIAASILRLHFHDCFVNGCDASILLDNTTSFRTEKDAFGNANSARGFPVIDRMKAAVESACPRTVSCADLLTIAAQQSVTLAGGPSWRVPLGRRDSLQAFLDLANANLPAPFFTLPQLKDSFRNVGLNRSSDLVALSGGHTFGKNQCRFIMDRLYNFSNTGLPDPTLNTTYLQTLRGLCPLNGNLSALVDFDLRTPTIFDNKYYVNLEEQKGLIQSDQELFSSPNATDTIPLVRSFANSTQTFFNAFVEAMDRMGNITPLTGTQGQIRLNCRVVNSNS

Experiments:
dermis = test: Cellular integration and ECM production of dermal filler substances implanted intradermally; assay type: in vivo, Sprague-Dawley rats; settings: one month after implantation; for cellular integration and ECM production within Hylaform: LP 1 mg/ml or HRP 500 μg/ml added to Hylaform, or Hylaform alone; for cellular integration and ECM production within Restylane: LP 1 mg/ml or HRP 500 μg/ml added to Restylane, or Restylane alone
Protocol: The ability of agents with peroxidase activity to stimulate the production of endogenous ECM within, or about, a substrate when implanted in vivo was assessed. Substrates used for these experiments were two hyaluronic acid based dermal filler substances; Hylaform® Plus containing 5.5 mg/ml hylan B gel and Restylane® containing 20 mg/ml stabilised hyaluronic acid, and Sculptra® containing poly-L-lactic acid. The two pre-prepared “ready to use” hyaluronic acid filler substances were diluted 1:2 with 1 mg/ml HRP to give a final concentration of 500 μg/ml HRP whilst Sculptra powder was dissolved in a lmg/ml LP solution to final concentrations of 25 and 50 mg/ml poly-L-lactic acid. As described in example 8, female Sprague-Dawley rats were lightly anaesthetized and a volume of approximately 50 μl of the filler substance+protein with peroxidase activity or filler substance alone were injected intradermally into different sites on their dorsum. The rats were returned to their cage and left alone for 7 days or 1 month after which they were killed by CO2 asphyxiation and the skin at the injection sites collected for histological assessment as described in example 8, or immunohistochemical staining for collagen I using the method outlined previously for the SMA immunohistochemistry (in Example 3) with the variation that 5 μg/ml rabbit anti Collagen-I (Rocklands Immunochemicals) was used as the primary antibody.

[1] = system: adult primary fibroblast cells and HFF cells; test: Organisation of collagen fibers on coverslips (collagen I immunohistochemistry); assay type: cell-based, human; settings: treated up to 7 days
Protocol: ECM, rather than disorganized ECM which would increase the risk of scar formation within the dermis and contribute to the generation of structurally and functionally impaired replacement tissue, additional experiments were performed to visualize the collagen fibers formed by fibroblast cells stimulated with proteins having peroxidase activity. These experiments involved growing adult primary fibroblast cells and HFF cells on microscope slide coverslips placed into each well of six well tissue culture plates. Each well containing a coverslip was seeded with 1.5×10^5 cells and after one week of culture, the cells were treated with a range of proteins having peroxidase activity for up to 7 days. At the end of the experiment, the cell media was removed and the cells and cell-associated ECM fixed by the addition of 10% formalin. The coverslips were removed from the tissue culture plate and stained immunohistochemically for collagen I using the method outlined in Example 3 for the SMA immunohistochemistry with the variation that 5 μg/ml rabbit anti Collagen-I (Rocklands Immunochemicals) was used as the primary antibody.

[2] = system: primary-adult fibroblast cells; test: Fibroblast infiltration into INTEGRA scaffold (SMA immunohistochemistry); assay type: cell-based, human
Source text: INTEGRA® was cut into lcm x lcm pieces using a sterile scalpel, the pieces transferred to a petri dish using sterile forceps and washed four times each with PBS followed by serum-free DMEM, to remove the alcohol storage medium and to equilibrate the porous scaffold for exposure to cells. After the last wash, the INTEGRA® pieces were transferred to the wells of a 12 well tissue culture plate (collagen layer facing up) immersed in media containing proteins having peroxidase activity. This “pre-treatment” of the INTEGRA® with proteins having peroxidase activity was performed for up to 16 hours at 37° C. in a CO2 incubator. After the “pre-incubation” period, the media was replaced with fresh DMEM supplemented with 10% FBS (ie normal growth media as the control) containing 5×10^5 human fibroblast cells plus or minus proteins having peroxidase activity. After allowing 24 hours for the fibroblast cells to attach to the collagen matrix of the INTEGRA® scaffold, the INTEGRA® pieces were transferred to fresh 12 well plates to ensure any cells not attached to the matrix surface were removed. Fresh media containing proteins with peroxidase activity were added to the wells and the INTEGRA® pieces incubated for up to 14 days (“post-treatment” period) with the media changed every 7 days as necessary. […]

adult fibroblast cells = test: ECM production within INTEGRA scaffold (collagen I immunohistochemistry); assay type: cell-based, human
Source text: INTEGRA® was cut into lcm x lcm pieces using a sterile scalpel, the pieces transferred to a petri dish using sterile forceps and washed four times each with PBS followed by serum-free DMEM, to remove the alcohol storage medium and to equilibrate the porous scaffold for exposure to cells. After the last wash, the INTEGRA® pieces were transferred to the wells of a 12 well tissue culture plate (collagen layer facing up) immersed in media containing proteins having peroxidase activity. This “pre-treatment” of the INTEGRA® with proteins having peroxidase activity was performed for up to 16 hours at 37° C. in a CO2 incubator. After the “pre-incubation” period, the media was replaced with fresh DMEM supplemented with 10% FBS (ie normal growth media as the control) containing 5×10^5 human fibroblast cells plus or minus proteins having peroxidase activity. After allowing 24 hours for the fibroblast cells to attach to the collagen matrix of the INTEGRA® scaffold, the INTEGRA® pieces were transferred to fresh 12 well plates to ensure any cells not attached to the matrix surface were removed. Fresh media containing proteins with peroxidase activity were added to the wells and the INTEGRA® pieces incubated for up to 14 days (“post-treatment” period) with the media changed every 7 days as necessary. At the end of the experiment the INTEGRA® pieces were harvested and fixed in 10% buffered formaldehyde before they were processed, embedded in paraffin wax, cut in cross-section and placed onto microscope slides for histological and immunohistochemical analysis.
To confirm proteins having peroxidase activity promote the generation of a three-dimensional human tissue by stimulating the production of collagen and other ECM components to fill the interstices of a three-dimensional framework or scaffold, INTEGRA® pieces collected from the experiments described in Example 3 were analysed for the production of Collagen I (as a representative ECM protein) using immunohistochemistry. […]

HFF cells = test: Collagen I production stimulated by SBP eluted from INTEGRA (ELISA); assay type: cell-based, human; settings: versus control INTEGRA pieces
Protocol: These experiments were performed by pre-incubating 1 cm×1 cm pieces of INTEGRA® with SBP (25 μg/ml) as described in Example 3 for either 30 minutes or 16 hours, control pieces were pre-incubated in DMEM only. After this time, the pieces of INTEGRA® were washed in fresh media to remove excess SBP solution, and placed into the wells of a 12-well culture plate pre-seeded with HFF cells (2×10^5cells/well) that were grown to confluency over three days. The media from these wells was collected after 24 and 48 hours with peroxidase activity measured (to determine the rate of elution of the proteins with peroxidase activity from the Integra) and the collagen content measured by ELISA (to ensure the eluted proteins with peroxidase activity retained the capacity to stimulate collagen production by the HFF cells). The peroxidase activity was assessed using the Sigmafast™ O-phenylenediamine dihydrochloride (OPD) detection method as per the manufacturers instructions. Briefly, 5 μl of sample was combined with 100 μl of reagent and relative peroxidase activity determined after 5-10 minutes incubation by measuring absorbance at 450 nm using a Wallac Victor Multilabel HTS counter.

[3] = 25 μg/ml before and after addition of cells, 7 days, versus 7 and 14 day controls

| Molecule | cellular integration and ECM production within Hylaform (dermis) | cellular integration and ECM production within Restylane (dermis) | collagen fibers in the cell-associated ECM [1] | other results |
| --- | --- | --- | --- | --- |
| lactoperoxidase [LP] | surprising increase in cellular infiltration and integration and cell-associated ECM production | surprising increase in cellular infiltration and integration and cell-associated ECM production | – | – |
| microperoxidase [MP] | – | – | collagen was not the major ECM protein deposited | – |
| soy bean peroxidase [SBP] | – | – | – | cells within the interstices of the INTEGRA scaffold [2, 3]: many more cells were evident within the interstices of the scaffold; cell-associated ECM within the interstices of the scaffold (adult fibroblast cells; [3]): much more cell-associated ECM was evident; ECM production (collagen I ELISA) by HFF cells exposed to eluted protein (HFF cells): able to stimulate ECM production |
| B1 | Increased cellular integration and ECM production | Increased cellular integration and ECM production | strongly stained, parallel collagen fibers | cells within the INTEGRA scaffold ([2]; 25 μg/ml, 14 days of treatment): even greater number of cells evident within the scaffold; ECM production and integration (adult fibroblast cells; 25 μg/ml, 14 days, versus 14 days standard conditions): much greater ECM production and integration |
